Patent EP0574185B1, “PGE1 analogs” (NEWPHARMA INTERNATIONAL CORPORATION, priority 1992, dated 1993)

How the values were obtained:
[1] = Diarrheagenic effect in mice; design: species or system Swiss mice; conditions: mouse, in vivo
Procedure: The diarrheagenic effect of the synthetic PGE1 analog B-407 was evaluated in Swiss mice. The effect of the intraperitoneal and intravaginal routes of administration were studied as follows:
Six groups of ten mice (25 to 30 g) each (5 ♂ and 5 ♀) were used. They received i.p. doses of 0; 1; 3; 10; 30 and 100 µg/kg of the test drug. The diarrheagenic response was evaluated on an "all-or-none" basis as described in section C.
A seven points dose-response curve was performed for B-407. Eight groups of six mice (18 to 25 g) each received doses of 0; 10; 18; 32; 56; 100; 160 and 250 µg/kg of B-407.
The intravaginal administration was made through a polyethylene catheter attached to a 1 ml syringe. This system allows the delivery of volumes of 10 to 15 µl.
The animals were evaluated in an "all-or-none" basis as the ratio of the number of animals with diarrhea over the total number of mice in the group. The median effective doses (ED50) with their fiducial limits and the statistics were performed according Litchfield and Wilcoxon [Eur. J. Pharmacol. 34, 105 (1975); J. Pharmacol. Exp. Ther., 96, 99 (1949)].

[2] = tested on: isolated uterus under diestrous (without any spontaneous contractions); test: B2: effect on isolated uterus of diestrous rat without spontaneous contractions (De Jalon solution with sodium diclofenac, non-cumulative curves); design: species or system Wistar rats; conditions: for Area (g of tension/2 min): B2, basal 1,96
Procedure: (B1)- Concentration-response curves on isolated rat uterus under diestrous condition were carried out. Wistar rats weighing 250 g to 300 g were employed. The diestrous phase was detected by a daily vaginal smear. The uterus was dissected out and a portion of a horn was placed in a 10 ml organ bath in a similar way to that described in part A. The bath temperature was maintained at 37°C, bubbled with a mixture of 95 % O2 and 5 % CO2 in a Krebs nutrient solution. The organ was left to stabilize for one hour. The isolated uterus presented basal spontaneous contractions under these experimental conditions. Cumulative concentration-response curves were carried out with the addition of either 100 µl or 300 µl of solutions of either natural prostaglandins or B-407 in concentrations of 10^-10 M to 10^-6 M, each 15 minutes without any washing. Uterine contractions and quantitation were performed as described in (A). (B2)- Concentration-response curves in isolated uterus under diestrous (without any spontaneous contractions) were carried out. Sodium diclofenac was added to De Jalon nutrient solution to a final concentration of 4x10^-6 M. The organ was left to stabilize until the absence of spontaneous contractions. Non-cumulative concentration-response curves were obtained. Recordings of the contractions and their quantitation were performed as described in (A).
The frequency and magnitude of the responses were globally evaluated by calculating the total area recorded at a fixed time period as will be further explained. The areas under the curve of the recording paper, over 15 minutes periods, were cut and weighed both in the concentration-response curves and in the potentiating experiments.
The calibration was made by weighing a piece of paper which corresponded to a tension of 1 g at the working sensitivity along 2 minutes. Therefore, a relationship of area expressed in g/2 min was obtained and then the weights of the areas of the responses were transformed to unities of area. The results were expressed as the mean ± the standard error of the areas obtained. The statistical evaluation of the differences was carried out either by ANOVA or by Student's-t-test, as appropriate.

anesthetized rat = test: Blood pressure and heart rate in anesthetized rat; format: in vivo, male Wistar rats; conditions: i.v.; for HR (Heart Rate): basal 440,8 ± 9,7; for Δ MBP (Mean Blood Pressure): basal MBP 120,9 ± 4,6, n= 6
Procedure: The acute effect of B-407 on the cardiovascular system was studied. After doses of 10 µg/kg, 30 µg/kg, and 100 µg/kg, administered intravenously (i.v.) the arterial blood pressure and heart rate were evaluated on male Wistar rats weighing 300 g to 350 g. Rats were anesthetized with 40 mg/kg, i.p., of sodium pentobarbital. The left jugular vein was cannulated by means of polyethylene tubing to allow the i.v. administration of drugs. The trachea was cannulated to facilitate ventilation and the right carotid artery was cannulated to record blood pressure and heart beat. A dose of 350 UI/kg, i.v., sodium heparin was administered. The catheter of the artery was connected to a pressure transducer attached to a Berger polygraph. The volume of the i.v. administrations was 0.4 ml/kg. The working protocol was as follows:
A steady-state recording was obtained over a 30 minutes time period. Then a dose of 0.5 µg/kg of noradrenaline followed by 0.5 µg/kg of isoproterenol were administered over 5 to 10 minutes. After 5 min of recording, increasing doses of B-407 were administered every 15 minutes. The mean arterial blood pressure (mm Hg) was obtained by calculating the average of the values of […]. The heart rate (beats/min) was obtained by counting the number of contractions by units of time.

[3] = tested on: guinea pig isolated trachea; test: Relaxation of histamine contracted guinea pig tracheal chain in vitro; design: species or system guinea pigs; conditions: 10^-5 M; percentage on the histamine (1x10^-6 M) induced contraction; n = 8; vehicle -7 ± 3
Procedure: The effect of B-407 on isolated trachea was evaluated in guinea pigs weighing 700 g. The animals were killed and the trachea was dissected out, transferred to a dish containing Krebs solution and cut transversely between the segments of cartilage, so as to give a number of rings of tracheal muscle. Five rings were tied up together with cotton threads, so as to form a chain, which was then mounted in a 10 ml bath with Krebs solution at 37°C, aerated with a mixture of oxygen (95 %) and carbon dioxide (5 %). The load on the lever was 0.4 g. The organ was left to stabilize for 15 to 30 min.
Enough quantity (100 µl) of 0.1 mM histamine solution was added to the bath (1x10^-6 M) in order to obtain a contraction of 0.2 g to 0.5 g of tension. After the contraction reached a plateau, 100 µl of ethanol: distilled water (1:1) (vehicle as control) was added to the bath. Eight minutes later, the preparation was relaxed by washing 4 to 6 times. […]
The relaxation induced by B-407 was expressed as a percentage on the histamine induced contraction. The average ± standard error of all the determinations were calculated ["The guinea-pig tracheal chain"; "Pharmacological Experiments on Isolated Preparations". […]

Swiss male mice = test: Motor activity in mice (rota-rod); conditions: 100 µg/kg, i.p., 15 min prior to the test; vehicle 0/10

CCCCC(C)(O)C/C=C/[C@H]1[C@H](O)CC(=O)[C@@H]1CCCC/C=C/C(=O)OC (mixture of isomers) [B-407, trans-Δ^2-15-deoxy-16-hydroxy-16-methyl PGE1 methyl ester]
ED50 ([1]; ip, confidence limits 1,95 to 8,65, n 10): 0.00412 mg/kg | ED50 ([1]; i.vag., confidence limits 27,4 to 124,9, n 6): 0.0583 mg/kg | maximum response of the uterotonic effect relative to the basal one ([2]; B2, with diclofenac): duplicates the basal one | Area (g of tension/2 min) ([2]; 1x10^-6 M): 4,24 g of tension/2 min | Area (g of tension/2 min) ([2]; 1x10^-7 M): 3,73 g of tension/2 min | Area (g of tension/2 min) ([2]; 1x10^-8 M): 2,10 g of tension/2 min | Area (g of tension/2 min) ([2]; 1x10^-9 M): 1,91 g of tension/2 min | Higher lasting time (anesthetized rat; 10 µg/kg): 0,66 min | HR (Heart Rate) (anesthetized rat; 10 µg/kg): 430,6 ± 7,2 Beats / min | Δ MBP (Mean Blood Pressure) (anesthetized rat; 10 µg/kg): -11,0 ± 1,3 mm Hg | Higher lasting time (anesthetized rat; 30 µg/kg): 2,5 min | HR (Heart Rate) (anesthetized rat; 30 µg/kg): 420,7 ± 4,1 Beats / min | Δ MBP (Mean Blood Pressure) (anesthetized rat; 30 µg/kg): -29,8 ± 3,8 mm Hg | Higher lasting time (anesthetized rat; 100 µg/kg): 5,5 min | HR (Heart Rate) (anesthetized rat; 100 µg/kg): 452,7 ± 16,7 Beats / min | Δ MBP (Mean Blood Pressure) (anesthetized rat; 100 µg/kg): -47,7 ± 3,3 mm Hg | % of relaxation [3]: 35 ± 5% | Fraction (animals fallen before 300 sec/total number of animals) (Swiss male mice): 1/10
